By IC50 is commonly meant the concentration at which inhibition is half-maximal.

This assay addresses T1, human Cav3.2 T-type Ca2+ channel (Homo sapiens, UniProt O95180).
T1 construct: expressed in transfected cells; host or cells: KJMGER8 cells (Namalwa cell-derived cell line)
Nature of the assay: Inhibitory effect for intracellular calcium response via Cav3.2 T-type Ca2+ channels (FLIPR Calcium 3 Assay Kit). Format: cell-based.

Setting [1] is: human Cav3.2-expressing KJMGER8 cells (Namalwa-derived), calcium response induced by 5 mmol/L CaCl2, 3 μmol/L mibefradil as reference, read-out: IC50 for the human Cav3.2 T-type Ca2+ current.

Where a name gives a salt, the structure may show the parent alone. Read-outs that look alike come from different tables or passages of the source.

T1 sequence (O95180 whole entry): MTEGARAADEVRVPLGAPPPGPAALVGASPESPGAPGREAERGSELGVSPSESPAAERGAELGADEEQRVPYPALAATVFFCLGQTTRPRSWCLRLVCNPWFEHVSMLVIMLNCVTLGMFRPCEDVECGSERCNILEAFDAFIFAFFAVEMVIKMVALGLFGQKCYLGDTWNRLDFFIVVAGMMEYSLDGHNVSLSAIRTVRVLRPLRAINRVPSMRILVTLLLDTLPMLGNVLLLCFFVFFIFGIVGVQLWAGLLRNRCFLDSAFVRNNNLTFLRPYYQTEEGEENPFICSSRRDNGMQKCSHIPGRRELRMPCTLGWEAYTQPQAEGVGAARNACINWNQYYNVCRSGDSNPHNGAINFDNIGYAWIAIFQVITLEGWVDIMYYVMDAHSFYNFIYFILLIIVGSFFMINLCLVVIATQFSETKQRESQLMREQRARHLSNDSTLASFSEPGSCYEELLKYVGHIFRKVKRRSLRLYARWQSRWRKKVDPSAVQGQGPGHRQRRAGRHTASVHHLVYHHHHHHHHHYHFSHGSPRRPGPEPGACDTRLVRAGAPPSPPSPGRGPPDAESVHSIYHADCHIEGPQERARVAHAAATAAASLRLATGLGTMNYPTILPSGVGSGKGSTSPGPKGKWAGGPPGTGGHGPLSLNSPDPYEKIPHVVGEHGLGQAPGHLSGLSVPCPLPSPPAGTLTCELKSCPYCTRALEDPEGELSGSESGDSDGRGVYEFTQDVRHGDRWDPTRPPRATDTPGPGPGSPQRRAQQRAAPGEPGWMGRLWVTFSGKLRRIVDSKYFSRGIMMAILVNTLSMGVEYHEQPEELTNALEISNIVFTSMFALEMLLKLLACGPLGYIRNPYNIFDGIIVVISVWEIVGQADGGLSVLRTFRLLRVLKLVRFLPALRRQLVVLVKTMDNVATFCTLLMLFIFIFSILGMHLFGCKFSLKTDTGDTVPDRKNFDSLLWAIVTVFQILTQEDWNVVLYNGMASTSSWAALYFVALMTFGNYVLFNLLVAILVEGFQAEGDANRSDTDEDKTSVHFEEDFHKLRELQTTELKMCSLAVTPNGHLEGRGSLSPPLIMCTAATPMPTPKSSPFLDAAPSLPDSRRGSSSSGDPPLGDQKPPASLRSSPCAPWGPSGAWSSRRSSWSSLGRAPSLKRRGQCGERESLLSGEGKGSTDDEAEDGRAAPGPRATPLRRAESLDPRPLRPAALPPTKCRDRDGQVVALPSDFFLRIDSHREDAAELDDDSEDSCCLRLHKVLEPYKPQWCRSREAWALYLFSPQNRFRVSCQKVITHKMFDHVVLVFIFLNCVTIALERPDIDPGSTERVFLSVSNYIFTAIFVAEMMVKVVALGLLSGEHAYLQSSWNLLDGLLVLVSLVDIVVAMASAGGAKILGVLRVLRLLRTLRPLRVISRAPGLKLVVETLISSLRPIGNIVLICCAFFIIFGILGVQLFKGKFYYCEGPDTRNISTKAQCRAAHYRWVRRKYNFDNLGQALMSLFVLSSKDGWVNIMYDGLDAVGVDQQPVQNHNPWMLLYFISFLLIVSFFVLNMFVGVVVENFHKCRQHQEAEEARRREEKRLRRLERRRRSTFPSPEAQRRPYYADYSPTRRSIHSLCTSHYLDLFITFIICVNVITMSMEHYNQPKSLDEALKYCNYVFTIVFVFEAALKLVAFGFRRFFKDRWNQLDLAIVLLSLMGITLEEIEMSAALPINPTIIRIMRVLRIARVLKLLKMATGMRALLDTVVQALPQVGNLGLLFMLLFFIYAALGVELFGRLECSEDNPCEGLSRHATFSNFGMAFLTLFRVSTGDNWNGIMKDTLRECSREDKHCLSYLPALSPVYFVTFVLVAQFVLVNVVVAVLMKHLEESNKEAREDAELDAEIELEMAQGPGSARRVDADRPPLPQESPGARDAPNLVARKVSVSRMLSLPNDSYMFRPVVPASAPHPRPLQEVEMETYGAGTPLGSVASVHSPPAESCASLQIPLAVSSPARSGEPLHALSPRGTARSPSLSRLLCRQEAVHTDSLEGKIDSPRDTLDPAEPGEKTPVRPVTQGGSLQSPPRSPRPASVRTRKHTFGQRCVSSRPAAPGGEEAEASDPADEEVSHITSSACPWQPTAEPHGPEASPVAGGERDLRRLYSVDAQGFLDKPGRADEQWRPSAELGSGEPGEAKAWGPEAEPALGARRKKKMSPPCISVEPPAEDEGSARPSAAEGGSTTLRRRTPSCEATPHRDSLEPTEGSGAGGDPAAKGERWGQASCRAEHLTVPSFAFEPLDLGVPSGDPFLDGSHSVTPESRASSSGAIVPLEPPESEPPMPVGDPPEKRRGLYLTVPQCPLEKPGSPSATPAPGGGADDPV

As for `N#Cc1cc(C(=O)NC2COC2)cc2nc(C(F)(F)F)c(CC3CCC(F)(F)CC3)n12` [Compound 60], the IC50 under setting [1] was at most 100 nM.

In the case of `Cc1cc(C(O)c2nc3ccccc3[nH]2)cc2nc(C(F)(F)F)c(CC3CCC(F)(F)CC3)n12` (centres unmarked) [Compound 112, (1H-Benzo[d]imidazol-2-yl){3-[(4,4-difluorocyclohexyl)methyl]-5-methyl-2-(trifluoromethyl)imidazo[1,2-a]pyridin-7-yl}methanol], the IC50 under setting [1] is at most 100 nM.

With `CC1(C)CC(NC(=O)c2cc(C#N)n3c(CC4CCC(F)(F)CC4)c(C(F)(F)F)nc3c2)CCO1` (centres unmarked) [Compound 57, 5-Cyano-3-[(4,4-difluorocyclohexyl)methyl]-N-(2,2-dimethyltetrahydro-2H-pyran-4-yl)-2-(trifluoromethyl)imidazo[1,2-a]pyridine-7-carboxamide], the IC50 is at most 100 nM.

Turning to `CC(F)(F)c1nc2cc(C(=O)NCC3CC3)c(Cl)cn2c1CC1CCC(F)(F)CC1` [Compound 21, 6-Chloro-N-(cyclopropylmethyl)-3-[(4,4-difluorocyclohexyl)methyl]-2-(1,1-difluoroethyl)imidazo[1,2-a]pyridine-7-carboxamide], the IC50 was at most 100 nM.

As for `N#Cc1cc(C(=O)NC2CCC3(CC2)COC3)cc2nc(C(F)(F)F)c(CC3CCC(F)(F)CC3)n12` [Compound 70, 5-Cyano-3-[(4,4-difluorocyclohexyl)methyl]-N-(2-oxaspiro[3.5]nonan-7-yl)-2-(trifluoromethyl)imidazo[1,2-a]pyridine-7-carboxamide], under setting [1], the IC50 is at most 100 nM.

Take `CC(C)(C)NC(=O)c1cc(Cl)n2c(CC3CCC(F)(F)CC3)c(C(F)(F)F)nc2c1` [Compound 220, N-tert-Butyl-5-chloro-3-[(4,4-difluorocyclohexyl)methyl]-2-(trifluoromethyl)imidazo[1,2-a]pyridine-7-carboxamide]: the IC50 was at most 100 nM.

With `Cc1cc(Cc2nc3ccccc3[nH]2)cc2nc(C(F)(F)F)c(CC3CCC(F)(F)CC3)n12` [Compound 87, 2-({3-[(4,4-Difluorocyclohexyl)methyl]-5-methyl-2-(trifluoromethyl)imidazo[1,2-a]pyridin-7-yl}methyl)-1H-benzo[d]imidazol], the IC50 under setting [1] was at most 100 nM.

For `CC(C)(CNC(=O)c1cc(C#N)n2c(CC3CCC(F)(F)CC3)c(C(F)(F)F)nc2c1)COC=O` [Compound 157, 3-(5-Cyano-3-[(4,4-difluorocyclohexyl)methyl]-2-(trifluoromethyl)imidazo[1,2-a]pyridine-7-carboxamide)-2,2-dimethylpropyl formate], the IC50 was at most 100 nM.

`Cc1cc(C(=O)NC(C)(C)C)cc2nc(C(C)C)c(CC3CCC(F)(F)CC3)n12` [Compound 219, N-tert-Butyl-3-[(4,4-difluorocyclohexyl)methyl]-2-isopropyl-5-methylimidazo[1,2-a]pyridine-7-carboxamide]: the IC50 is at most 100 nM.

In the case of `Cc1cc(C(=O)NC2CCOCC2)cc2nc(C(C)(C)C)c(CC3CCC(F)(F)CC3)n12` [Compound 4, 2-tert-Butyl-3-[(4,4-difluorocyclohexyl)methyl]-5-methyl-N-(tetrahydro-2H-pyran-4-yl)imidazo[1,2-a]pyridine-7-carboxamide], the IC50 was at most 100 nM.

With `O=C(NC1CCOCC1)c1cc(O)n2c(CC3CCC(F)(F)CC3)c(C(F)(F)F)nc2c1` [Compound 49, 3-[(4,4-Difluorocyclohexyl)methyl]-5-hydroxy-N-(tetrahydro-2H-pyran-4-yl)-2-(trifluoromethyl)imidazo[1,2-a]pyridine-7-carboxamide], the IC50 is at most 100 nM.

As to `N#Cc1cc(C(=O)NCC(=O)c2ccccc2)cc2nc(C(F)(F)F)c(CC3CCC(F)(F)CC3)n12` [Compound 67, 5-Cyano-3-[(4,4-difluorocyclohexyl)methyl]-N-(2-oxo-2-phenylethyl)-2-(trifluoromethyl)imidazo[1,2-a]pyridine-7-carboxamide], the IC50 was at most 100 nM.

As for `Cc1cc(C(=O)NC2CC3(COC3)C2)cc2nc(C(C)(F)F)c(CC3CCC(F)(F)CC3)n12` [Compound 136, 3-[(4,4-Difluorocyclohexyl)methyl]-2-(1,1-difluoroethyl)-5-methyl-N-(2-oxaspiro[3.3]heptan-6-yl)imidazo[1,2-a]pyridine-7-carboxamide], the IC50 was at most 100 nM.

For the compound `CC(F)(F)c1nc2cc(C(=O)NC3CC4(COC4)C3)c(Cl)cn2c1CC1CCC(F)(F)CC1` [Compound 147, 6-Chloro-3-[(4,4-difluorocyclohexyl)methyl]-2-(1,1-difluoroethyl)-N-(2-oxaspiro[3.3]heptan-6-yl)imidazo[1,2-a]pyridine-7-carboxamide], the IC50 is at most 100 nM.

As to `Cc1cc(C(=O)NC2CCOCC2)cc2nc(C(C)(F)F)c(Cc3ccc(Cl)cc3)n12` [Compound 214, 3-(4-Chlorobenzyl)-2-(1,1-difluoroethyl)-5-methyl-N-(tetrahydro-2H-pyran-4-yl)imidazo[1,2-a]pyridine-7-carboxamide], the IC50 is at most 100 nM.

On to `N#Cc1cc(C(=O)NC(=O)C2CC2)cc2nc(C(F)(F)F)c(CC3CCC(F)(F)CC3)n12` [Compound 202, 5-Cyano-N-(cyclopropanecarbonyl)-3-[(4,4-difluorocyclohexyl)methyl]-2-(trifluoromethyl)imidazo[1,2-a]pyridine-7-carboxamide], for which the IC50 was at most 100 nM.

Regarding `N#Cc1cc(C(=O)Nc2ccccc2N)cc2nc(C(F)(F)F)c(CC3CCC(F)(F)CC3)n12` [Compound 52, N-(2-Aminophenyl)-5-cyano-3-[(4,4-difluorocyclohexyl)methyl]-2-(trifluoromethyl)imidazo[1,2-a]pyridine-7-carboxamide], the IC50 was at most 100 nM.

`CC(F)(F)c1nc2cc(C(=O)NCC3CCOC3)c(Cl)cn2c1CC1CCC(F)(F)CC1` (centres unmarked) [Compound 24, 6-Chloro-3-[(4,4-difluorocyclohexyl)methyl]-2-(1,1-difluoroethyl)-N-[(tetrahydrofuran-3-yl)methyl]imidazo[1,2-a]pyridine-7-carboxamide]: the IC50 was at most 100 nM.

Consider `CC(C)(CO)NC(=O)c1cc(C#N)n2c(CC3CCC(F)(F)CC3)c(C(F)(F)F)nc2c1` [Compound 162], for which the IC50 was at most 100 nM.

As for `CC1(CNC(=O)c2cc(C#N)n3c(CC4CCC(F)(F)CC4)c(C(F)(F)F)nc3c2)CCCO1` (centres unmarked) [Compound 2, 5-Cyano-3-[(4,4-difluorocyclohexyl)methyl]-N-[(2-methyltetrahydrofuran-2-yl)methyl]-2-(trifluoromethyl)imidazo[1,2-a]pyridine-7-carboxamide], the IC50 was at most 100 nM.

In the case of `COC1(CNC(=O)c2cc(C#N)n3c(CC4CCC(F)(F)CC4)c(C(F)(F)F)nc3c2)CCOCC1` [Compound 141, 5-Cyano-3-[(4,4-difluorocyclohexyl)methyl]-N-[(4-methoxytetrahydro-2H-pyran-4-yl)methyl]-2-(trifluoromethyl)imidazo[1,2-a]pyridine-7-carboxamide], the IC50 is at most 100 nM.

As for `O=C(NCC1CC1)c1cc(Cl)n2c(CC3CCC(F)(F)CC3)c(C(F)(F)F)nc2c1` [Compound 77, 5-Chloro-N-(cyclopropylmethyl)-3-[(4,4-difluorocyclohexyl)methyl]-2-(trifluoromethyl)imidazo[1,2-a]pyridine-7-carboxamide], the IC50 is at most 100 nM.

For `N#Cc1cc(C(=O)NCCCN2CCCC2=O)cc2nc(C(F)(F)F)c(CC3CCC(F)(F)CC3)n12` [Compound 149, 5-Cyano-3-[(4,4-difluorocyclohexyl)methyl]-N-[3-(2-oxopyrrolidin-1-yl)propyl]-2-(trifluoromethyl)imidazo[1,2-a]pyridine-7-carboxamide], under setting [1], the IC50 is at most 100 nM.

For the compound `O=C(NC1CCOCC1)c1cc(CF)n2c(CC3CCC(F)(F)CC3)c(C(F)(F)F)nc2c1` [Compound 47, 3-[(4,4-Difluorocyclohexyl)methyl]-5-(fluoromethyl)-N-(tetrahydro-2H-pyran-4-yl)-2-(trifluoromethyl)imidazo[1,2-a]pyridine-7-carboxamide], the IC50 was at most 100 nM.

For `O=C(NCCc1c[nH]cn1)c1cc(Cl)n2c(CC3CCC(F)(F)CC3)c(C(F)(F)F)nc2c1` [Compound 104], the IC50 is at most 100 nM.

On to `O=C(NCc1ccncc1)c1cc(Cl)n2c(CC3CCC(F)(F)CC3)c(C(F)(F)F)nc2c1` [Compound 97], for which the IC50 was at most 100 nM.

For the compound `Cc1cc(C(=O)NC2CCC(F)(F)CC2)cc2nc(C(C)(C)O)c(CC3CCC(F)(F)CC3)n12` [Compound 9, N-(4,4-Difluorocyclohexyl)-3-[(4,4-difluorocyclohexyl)methyl]-2-(2-hydroxypropan-2-yl)-5-methylimidazo[1,2-a]pyridine-7-carboxamide], the IC50 under setting [1] is at most 100 nM.

On to `COc1c(C(=O)NC2CCOCC2)cc(C)n2c(CC3CCC(F)(F)CC3)c(C(F)(F)F)nc12` [Compound 133, 3-[(4,4-Difluorocyclohexyl)methyl]-8-methoxy-5-methyl-N-(tetrahydro-2H-pyran-4-yl)-2-(trifluoromethyl)imidazo[1,2-a]pyridine-7-carboxamide], for which the IC50 was at most 100 nM.

As for `CCOC(=O)C1(NC(=O)c2cc(C#N)n3c(CC4CCC(F)(F)CC4)c(C(F)(F)F)nc3c2)CC1` [Compound 161, Ethyl 1-{5-cyano-3-[(4,4-difluorocyclohexyl)methyl]-2-(trifluoromethyl)imidazo[1,2-a]pyridine-7-carboxamide}cyclopropanecarboxylate], the IC50 is at most 100 nM.

As for `CC(C)c1nc2cc(C(=O)NC(C)(C)C)cc(C#N)n2c1CC1CCC(F)(F)CC1` [Compound 226, N-tert-Butyl-5-cyano-3-[(4,4-difluorocyclohexyl)methyl]-2-isopropylimidazo[1,2-a]pyridine-7-carboxamide], the IC50 was at most 100 nM.

Turning to `O=C(NCc1ccccn1)c1cc(Cl)n2c(CC3CCC(F)(F)CC3)c(C(F)(F)F)nc2c1` [Compound 106], the IC50 is at most 100 nM.

`CC(C)(CNC(=O)c1cc2nc(C(F)(F)F)c(CC3CCC(F)(F)CC3)n2c(Cl)c1Cl)S(C)(=O)=O` [Compound 216, 5,6-Dichloro-3-[(4,4-difluorocyclohexyl)methyl]-N-[2-methyl-2-(methylsulfonyl)propyl]-2-(trifluoromethyl)imidazo[1,2-a]pyridine-7-carboxamide]: the IC50 is at most 100 nM.

(Values after patent US9540366B2, “Ring-fused heterocyclic compound” (Kyowa Hakko Kirin Co., Ltd., priority 2012, dated 2017).)
